target: ACK1 (Homo sapiens (Human), UniProt Q07912); test: Reaction Biology 33P Hotspot assay; format: biochemical
Sequence (Q07912 whole entry): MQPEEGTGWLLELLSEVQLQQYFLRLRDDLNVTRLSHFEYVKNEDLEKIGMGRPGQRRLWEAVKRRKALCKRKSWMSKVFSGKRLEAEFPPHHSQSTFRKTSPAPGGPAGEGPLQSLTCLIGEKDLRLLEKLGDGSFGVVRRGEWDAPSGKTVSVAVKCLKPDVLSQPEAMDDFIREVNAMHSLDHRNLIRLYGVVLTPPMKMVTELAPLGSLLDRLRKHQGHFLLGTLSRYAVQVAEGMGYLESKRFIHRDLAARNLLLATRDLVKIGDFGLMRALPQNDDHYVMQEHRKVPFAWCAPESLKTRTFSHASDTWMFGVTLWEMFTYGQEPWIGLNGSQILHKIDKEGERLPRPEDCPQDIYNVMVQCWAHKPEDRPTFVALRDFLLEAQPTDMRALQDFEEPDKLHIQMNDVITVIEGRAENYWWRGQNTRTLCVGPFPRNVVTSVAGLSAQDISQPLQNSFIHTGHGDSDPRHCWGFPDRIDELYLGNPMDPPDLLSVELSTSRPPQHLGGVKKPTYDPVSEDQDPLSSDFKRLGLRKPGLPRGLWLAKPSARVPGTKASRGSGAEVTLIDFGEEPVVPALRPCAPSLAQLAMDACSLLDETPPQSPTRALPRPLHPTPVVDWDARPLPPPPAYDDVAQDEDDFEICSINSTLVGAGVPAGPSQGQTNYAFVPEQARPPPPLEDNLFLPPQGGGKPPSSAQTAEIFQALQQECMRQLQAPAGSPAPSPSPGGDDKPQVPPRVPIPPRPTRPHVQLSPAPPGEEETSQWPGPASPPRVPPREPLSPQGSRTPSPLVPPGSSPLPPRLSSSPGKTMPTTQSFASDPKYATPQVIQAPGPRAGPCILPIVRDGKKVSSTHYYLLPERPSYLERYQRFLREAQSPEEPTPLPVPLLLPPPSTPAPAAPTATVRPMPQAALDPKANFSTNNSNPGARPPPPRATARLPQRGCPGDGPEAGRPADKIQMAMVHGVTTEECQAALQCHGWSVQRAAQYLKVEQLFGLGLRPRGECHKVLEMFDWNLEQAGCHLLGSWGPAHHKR

Row | Structure (SMILES) | IC50 [nM]
1 | CC(C)Oc1cc(Nc2ncc(Cl)c(Nc3ccc(NS(=O)(=O)C(C)(C)C)cc3)n2)ccc1N1CCN(C)CC1 [N-(4-((5-chloro-2-((3-isopropoxy-4-(4-methylpiperazin-1-yl)phenyl)amino)pyrimidin-4-yl)amino)phenyl)-2-methylpropane-2-sulfonamide] | 15.5
2 | COc1cc(N2CCN(C)CC2)c(F)cc1Nc1ncc(C)c(Nc2cccc(NS(=O)(=O)C(C)(C)C)c2)n1 [N-(3-((2-((5-fluoro-2-methoxy-4-(4-methylpiperazin-1-yl)phenyl)amino)-5-methylpyrimidin-4-yl)amino)phenyl)-2-methylpropane-2-sulfonamide] | 16.9
3 | Cc1cnc(Nc2ccc(OCC3CCOCC3)cc2)nc1Nc1cccc(NS(=O)(=O)C(C)(C)C)c1 [2-methyl-N-(3-((5-methyl-2-((4-((tetrahydro-2H-pyran-4-yl)methoxy)phenyl)amino)pyrimidin-4-yl)amino)phenyl)propane-2-sulfonamide] | 26
4 | Cc1cnc(Nc2ccc(N3CCN(C)CC3)cc2OC2CCC2)nc1Nc1cccc(NS(=O)(=O)C(C)(C)C)c1 [N-(3-((2-((2-cyclobutoxy-4-(4-methylpiperazin-1-yl)phenyl)amino)-5-methylpyrimidin-4-yl)amino)phenyl)-2-methylpropane-2-sulfonamide] | 26.2
5 | Cc1cnc(Nc2ccc(-c3cnn(C)c3)c(OC(C)C)c2)nc1Nc1cccc(NS(=O)(=O)C(C)(C)C)c1 [N-(3-((2-((3-isopropoxy-4-(1-methyl-1H-pyrazol-4-yl)phenyl)amino)-5-methylpyrimidin-4-yl)amino)phenyl)-2-methylpropane-2-sulfonamide] | 26
6 | COc1c(Nc2ncc(C)c(Nc3cccc(NS(=O)(=O)C(C)(C)C)c3)n2)ccc(N2CCN(C)CC2)c1F [N-(3-((2-((3-fluoro-2-methoxy-4-(4-methylpiperazin-1-yl)phenyl)amino)-5-methylpyrimidin-4-yl)amino)phenyl)-2-methylpropane-2-sulfonamide] | 37.6
7 | CN1CCN(c2ccc(Nc3ncc(Cl)c(Nc4cccc(NS(=O)(=O)C(C)(C)C)c4)n3)c(OC3CCC3)c2)CC1 [N-(3-((5-chloro-2-((2-cyclobutoxy-4-(4-methylpiperazin-1-yl)phenyl)amino)pyrimidin-4-yl)amino)phenyl)-2-methylpropane-2-sulfonamide] | 30
8 | Cc1cnc(Nc2ccc(-c3cnn(C)c3)c(OC(C)C)c2)nc1Nc1ccc(NS(=O)(=O)C(C)(C)C)cc1 [N-(4-((2-((3-isopropoxy-4-(1-methyl-1H-pyrazol-4-yl)phenyl)amino)-5-methylpyrimidin-4-yl)amino)phenyl)-2-methylpropane-2-sulfonamide] | 16.9
9 | COc1cc(N2CCN(C(C)=O)CC2)ccc1Nc1ncc(C)c(Nc2cccc(NS(=O)(=O)C(C)(C)C)c2)n1 [N-(3-((2-((4-(4-acetylpiperazin-1-yl)-2-methoxyphenyl)amino)-5-methylpyrimidin-4-yl)amino)phenyl)-2-methylpropane-2-sulfonamide] | 21.3
10 | CC(=O)N1CCN(c2ccc(Nc3ncc(C)c(Nc4cccc(NS(=O)(=O)C(C)(C)C)c4)n3)cc2OC(C)C)CC1 [N-(3-((2-((4-(4-acetylpiperazin-1-yl)-3-isopropoxyphenyl)amino)-5-methylpyrimidin-4-yl)amino)phenyl)-2-methylpropane-2-sulfonamide] | 13
11 | COc1cc(N2CCN(C)CC2)ccc1Nc1ncc(Cl)c(Nc2ccc(NS(=O)(=O)C(C)(C)C)cc2)n1 [N-(4-((5-chloro-2-((2-methoxy-4-(4-methylpiperazin-1-yl)phenyl)amino)pyrimidin-4-yl)amino)phenyl)-2-methylpropane-2-sulfonamide] | 17.5
12 | CC(C)Oc1cc(Nc2ncc(Cl)c(Nc3ccc(NS(C)(=O)=O)cc3)n2)ccc1N1CCN(C)CC1 [N-(4-((5-chloro-2-((3-isopropoxy-4-(4-methylpiperazin-1-yl)phenyl)amino)pyrimidin-4-yl)amino)phenyl)methanesulfonamide] | 26.7
13 | COc1cc(-c2cnn(C)c2)ccc1Nc1ncc(C)c(Nc2cccc(NS(=O)(=O)C(C)(C)C)c2)n1 [N-(3-((2-((2-methoxy-4-(1-methyl-1H-pyrazol-4-yl)phenyl)amino)-5-methylpyrimidin-4-yl)amino)phenyl)-2-methylpropane-2-sulfonamide] | 15.2
14 | COc1cc(N2CCN(C)CC2)ccc1Nc1ncc(C)c(Nc2ccc(NS(=O)(=O)C(C)(C)C)cc2)n1 [N-(4-((2-((2-methoxy-4-(4-methylpiperazin-1-yl)phenyl)amino)-5-methylpyrimidin-4-yl)amino)phenyl)-2-methylpropane-2-sulfonamide] | 7.62
15 | COc1cc(Nc2ncc(C)c(Nc3ccc(NS(=O)(=O)C(C)(C)C)cc3)n2)ccc1N1CCN(C)CC1 [N-(4-((2-((3-methoxy-4-(4-methylpiperazin-1-yl)phenyl)amino)-5-methylpyrimidin-4-yl)amino)phenyl)-2-methylpropane-2-sulfonamide] | 15.9

Continued by falling IC50, values first:

Row | IC50 [nM] | Structure (SMILES)
16 | 149 | Cc1cnc(Nc2ccc(-c3cnn(C)c3)cc2OC(C)C)nc1Nc1cccc(NS(=O)(=O)C(C)(C)C)c1 [N-(3-((2-((2-isopropoxy-4-(1-methyl-1H-pyrazol-4-yl)phenyl)amino)-5-methylpyrimidin-4-yl)amino)phenyl)-2-methylpropane-2-sulfonamide]
17 | 75.9 | CC(C)Oc1cc(Nc2ncc(Cl)c(Nc3ccc(NS(=O)(=O)C(C)(C)C)cc3)n2)ccc1-c1cnn(C)c1 [N-(4-((5-chloro-2-((3-isopropoxy-4-(1-methyl-1H-pyrazol-4-yl)phenyl)amino)pyrimidin-4-yl)amino)phenyl)-2-methylpropane-2-sulfonamide]
18 | 64 | CC(C)Oc1cc(Nc2ncc(Cl)c(Nc3cccc(NS(=O)(=O)C(C)(C)C)c3)n2)ccc1-c1cnn(C)c1 [N-(3-((5-chloro-2-((3-isopropoxy-4-(1-methyl-1H-pyrazol-4-yl)phenyl)amino)pyrimidin-4-yl)amino)phenyl)-2-methylpropane-2-sulfonamide]
19 | 30.8 | COc1cc(N2CCN(C)CC2)c(F)cc1Nc1ncc(C)c(Nc2ccc(NS(=O)(=O)C(C)(C)C)cc2)n1 [N-(4-((2-((5-fluoro-2-methoxy-4-(4-methylpiperazin-1-yl)phenyl)amino)-5-methylpyrimidin-4-yl)amino)phenyl)-2-methylpropane-2-sulfonamide]
20 | 17.5 | COc1cc(Nc2ncc(Cl)c(Nc3ccc(NS(=O)(=O)C(C)(C)C)cc3)n2)ccc1N1CCN(C)CC1 [N-(4-((5-chloro-2-((3-methoxy-4-(4-methylpiperazin-1-yl)phenyl)amino)pyrimidin-4-yl)amino)phenyl)-2-methylpropane-2-sulfonamide]
21 | 15.3 | CC(=O)N1CCN(c2ccc(Nc3ncc(C)c(Nc4cccc(NS(=O)(=O)C(C)(C)C)c4)n3)cc2)CC1 [N-(3-((2-((4-(4-acetylpiperazin-1-yl)phenyl)amino)-5-methylpyrimidin-4-yl)amino)phenyl)-2-methylpropane-2-sulfonamide]
22 | 14.8 | COc1cc(N2CCN(C)CC2)c(F)cc1Nc1ncc(C)c(Nc2ccc(NS(C)(=O)=O)cc2)n1 [N-(4-((2-((5-fluoro-2-methoxy-4-(4-methylpiperazin-1-yl)phenyl)amino)-5-methylpyrimidin-4-yl)amino)phenyl)methanesulfonamide]
